{
  "source": "patent EP4424303A1",
  "about": "“LENVATINIB COMPOSITION WITH IMPROVED BIOAVAILABILITY” (STADA ARZNEIMITTEL AG, priority 2023, dated 2024)",
  "assay": "Saturation (equilibrium) solubility by shake-flask technique",
  "assay_type": "physicochemical",
  "conditions": "thermodynamic from solid, 37 °C ± 1 °C",
  "description": "The equilibrium solubility of Lenvatinib mesylate in different dissolution media at 37 °C ± 1 °C was measured by shake-flask technique. The dissolution media were prepared according to USP. The pH for each test solution was measured after the addition of the drug substance and at the end of the equilibrium solubility study.\n1. Table 1: saturation solubility of Lenvatinib mesylate depending on pH",
  "note": "Where a name gives a salt, the structure may show the parent alone.",
  "data": [
    {"smiles": "COc1cc2nccc(Oc3ccc(NC(=O)NC4CC4)c(Cl)c3)c2cc1C(N)=O", "note": "[Lenvatinib mesylate, 4-[3-chloro-4-(cyclopropylaminocarbonyl)aminophenoxy]-7-methoxy-6-quinolinecarboxamide]", "values": [
      {"measurement": "solubility", "setting": "USP dissolution medium pH 2.0, simulated gastric fluid, pH 2.0, Initial pH 2.0, Final pH 1.88", "result": 2620, "unit": "µg/mL"},
      {"measurement": "solubility", "setting": "USP dissolution medium pH 4.5, aqueous buffer, pH 4.5, Initial pH 4.52, Final pH 4.38", "result": 13, "unit": "µg/mL"},
      {"measurement": "solubility", "setting": "USP dissolution medium pH 5.5, aqueous buffer, pH 5.5, Initial pH 5.49, Final pH 5.25", "result": 3, "unit": "µg/mL"},
      {"measurement": "solubility", "setting": "USP dissolution medium pH 6.8, aqueous buffer, pH 6.8, Initial pH 6.82, Final pH 6.68", "result": 1, "unit": "µg/mL"},
      {"measurement": "solubility", "setting": "simulated gastric fluid, 0.1N HCl, Initial pH 1.1, Final pH 1.23", "result": 1830, "unit": "µg/mL"}
    ]}
  ]
}
